The values that follow come from ChEMBL document CHEMBL5131378, “Kinases as Potential Therapeutic Targets for Anti-coronaviral Therapy” (J Med Chem, 2022).

Data set [1] has as its system Middle East respiratory syndrome-related coronavirus. Kind of data set: Antiviral activity against MERS-CoV. Format: functional, organism-based.
Data set [2] deals with SARS-CoV-2. Format: functional, Severe acute respiratory syndrome coronavirus 2, Vero E6. As to conditions: time 72 hrs.
The subject of data set [3] is SARS-CoV-2. Format: functional, organism-based, Vero E6. As to conditions: Severe acute respiratory syndrome coronavirus 2, Vero C1008, 72 h.
Data set [4] concerns the target Replicase polyprotein 1ab (Severe acute respiratory syndrome coronavirus 2, UniProt P0DTD1). Kind of data set: Inhibition of SARS-CoV-2 M-protease.
Data set [5] relates to SARS-CoV-2. It is filed as functional, organism-based, Vero E6. As to conditions: Severe acute respiratory syndrome coronavirus 2, Vero C1008.
For data set [6], the system named is SARS-CoV-2. It is filed as functional, organism-based. To be noted: Severe acute respiratory syndrome coronavirus 2, A549-ACE2.
For a further data set, the system named is SARS-CoV. Kind of data set: Antiviral activity against SARS-CoV in 24 hrs pretreated primary human liver spheroids assessed as reduction in viral load at 400 to 500 nM measured after 48 hrs. It is filed as functional, Severe acute respiratory syndrome-related coronavirus. The arrangement: scale not given: the % may be the effect or the level left. To be noted: dose 400-500 nM, time 72 hrs.

Data set [7] concerns Middle East respiratory syndrome-related coronavirus. Kind of data set: Antiviral activity against MERS-CoV infected in 1 hr pretreated human Huh-7 cells assessed as inhibition of viral growth at 10 uM measured after 48 hrs by plaque reduction assay relative to control. Format: functional. As to conditions: time 49 hrs. (Plaques are areas of infected cells; plaque reduction assays count them against a control.)

For data set [8], the system named is SARS-CoV-2. Description: microbe, parasite or virus in culture. As to conditions: Severe acute respiratory syndrome coronavirus 2.
The test system of a further data set is Murine coronavirus. Description: Antiviral activity against mCoV. It is filed as functional, organism-based.
In data set [9] the test system is Middle East respiratory syndrome-related coronavirus. Description: microbe, parasite or virus in culture. As to conditions: Huh-7, 72 h.
The nature of another data set: in vitro. To be noted: human, Huh-7 cells.
The subject of a further data set is Human coronavirus 229E. Kind of data set: Antiviral activity against hCoV-229e at 4 uM assessed as reduction of viral RNA relative to control. It is filed as functional. Also noted: scale not given: the % may be the effect or the level left.

Consider `Cn1nc(C(C)(C)C)cc1NC(=O)Nc1ccc(Oc2ccncc2)cc1`, for which, in data set [1], the half-maximal inhibitory concentration (IC50) turned out to be 4630 nM.

`CCN1CCN(Cc2ccc(Nc3ncc(F)c(-c4cc(F)c5nc(C)n(C(C)C)c5c4)n3)nc2)CC1` [ABEMACICLIB] had an Activity with SARS-CoV-2 [2] of 60%. The compound further gave a concentration giving a half-maximal response (EC50) in the data set with SARS-CoV-2 [3] of 2160 nM.

With `O=C1Cc2c([nH]c3ccc([N+](=O)[O-])cc23)-c2ccccc2N1` [ALSTERPAULLONE], inhibition in [4] was half-maximal at 1500 nM (IC50).

In the case of `Cc1cccc(/C=N/Nc2cc(N3CCOCC3)nc(OCCc3ccccn3)n2)c1` [APILIMOD], the figures for the half-maximal inhibitory concentration (IC50) with SARS-CoV-2 [5] and in the data set on SARS-CoV-2 [6] were less than 80 nM and 7 nM, respectively.

In turn, `CC(C)Cn1ncc2cc(Oc3ccc(F)cc3F)c(C(=O)NCCN(C)C)cc21` [ARRY-797] registered an IC50 in [1] of 913 nM.

`CNS(=O)(=O)Nc1nccc(Cc2c(C)c3ccc(Oc4ncccn4)cc3oc2=O)c1F` [AVUTOMETINIB] showed an IC50 with SARS-CoV-2 [3] of 600 nM.

For the compound `CCS(=O)(=O)N1CC(CC#N)(n2cc(-c3ncnc4[nH]ccc34)cn2)C1` [BARICITINIB], the Activity with SARS-CoV stood at 30%.

As for `CCc1cnn2c(NCc3ccc[n+]([O-])c3)cc(N3CCCC[C@H]3CCO)nc12` [DINACICLIB], the IC50 in the data set with SARS-CoV-2 [5] is 270 nM; with SARS-CoV-2 [6], 32 nM.

In the case of `CO[C@H]1C[C@@H]2CC[C@@H](C)[C@@](O)(O2)C(=O)C(=O)N2CCCC[C@H]2C(=O)O[C@H]([C@H](C)C[C@@H]2CC[C@@H](OCCO)[C@H](OC)C2)CC(=O)[C@H](C)/C=C(\C)[C@@H](O)[C@@H](OC)C(=O)[C@H](C)C[C@H](C)/C=C/C=C/C=C/1C` [EVEROLIMUS], the inhibition at 10 µM in [7] came out at 56%.

Take `CCc1nc(C(N)=O)c(Nc2ccc(N3CCC(N4CCN(C)CC4)CC3)c(OC)c2)nc1NC1CCOCC1` [GILTERITINIB]: the IC50 (in the data set on SARS-CoV-2 [8]; in [1]) was 807 nM in each case.

Take `CC(C)=CCC[C@](C)(O)[C@H]1CC[C@]2(C)[C@@H]1[C@H](O)C[C@@H]1[C@@]3(C)CC[C@H](O)C(C)(C)[C@@H]3[C@@H](O[C@@H]3O[C@H](CO)[C@@H](O)[C@H](O)[C@H]3O[C@@H]3O[C@H](CO)[C@@H](O)[C@H](O)[C@H]3O)C[C@]12C` [GINSENOSIDE RF]: the IC50 in the data set with Murine coronavirus worked out at 10000 nM.

For the compound `O=C1Cc2c([nH]c3ccc(Br)cc23)-c2ccccc2N1` [KENPAULLONE], the midpoint of inhibition in [4], the IC50, lay at 1500 nM.

`NC(=O)N1CCC(CC(=O)N2CCC([C@H]3c4ncc(Br)cc4CCc4cc(Cl)cc(Br)c43)CC2)CC1` [LONAFARNIB] registered an IC50 in the data set on SARS-CoV-2 [3] of 4990 nM.

For `CCCCCCCCCCCCCCCCOP(=O)([O-])OCC[N+](C)(C)C` [MILTEFOSINE], in data set [7], the inhibition at 10 µM was 28%.

As for `COc1ncc(-c2ccc3nccc(-c4ccnnc4)c3c2)cc1NS(=O)(=O)c1ccc(F)cc1F` [OMIPALISIB], the IC50 in the data set on SARS-CoV-2 [3] is 14 nM.

`C=CC(=O)Nc1cc(Nc2nccc(-c3cn(C)c4ccccc34)n2)c(OC)cc1N(C)CCN(C)C` [OSIMERTINIB] displayed an IC50 in the data set on SARS-CoV-2 [3] of 3980 nM.

The compound `CC(C)(C)Cn1c(N)nc2ccc(-c3[nH]c(C(C)(C)C)nc3-c3ccc(F)cc3)nc21` [RALIMETINIB] came in with a half-inhibitory concentration (IC50) in [1] of 873 nM.

Regarding `CN1CCN(CCOc2cc(OC3CCOCC3)c3c(Nc4c(Cl)ccc5c4OCO5)ncnc3c2)CC1` [SARACATINIB], in data set [9], the EC50 was determined as 2900 nM. This compound showed a CC50 in “in vitro” greater than 50000 nM.

Regarding `C[S+]([O-])c1ccc(-c2nc(-c3ccc(F)cc3)c(-c3ccncc3)[nH]2)cc1` (configuration not stated) [SB-203580], the Activity in the data set on Human coronavirus 229E came to 60%.

In turn, `O=C(O)c1ccc2c(c1)nc(Nc1cccc(Cl)c1)c1ccncc12` [SILMITASERTIB] had an IC50 in the data set with SARS-CoV-2 [8] of 1280 nM.

Consider `CO[C@H]1C[C@@H]2CC[C@@H](C)[C@@](O)(O2)C(=O)C(=O)N2CCCC[C@H]2C(=O)O[C@H]([C@H](C)C[C@@H]2CC[C@@H](O)[C@H](OC)C2)CC(=O)[C@H](C)/C=C(\C)[C@@H](O)[C@@H](OC)C(=O)[C@H](C)C[C@H](C)/C=C/C=C/C=C/1C` [SIROLIMUS], for which, in data set [7], the inhibition at 10 µM came out at 40%.

In the case of `COC[C@H]1OC(=O)c2coc3c2[C@@]1(C)C1=C(C3=O)[C@@H]2CCC(=O)[C@@]2(C)C[C@H]1OC(C)=O` [WORTMANNIN], the inhibition at 10 µM in data set [7] amounted to 40%.

In general, IC50 refers to the point on the concentration scale where inhibition reaches its midpoint. Usually EC50 stands for the concentration needed to bring the measured effect to its halfway point. What is called inhibition is how much of the control response was suppressed. What is called CC50 is the concentration at which the toxic effect on the cells reaches its halfway point.
